Experimental data taken from the NIST ThermoML archive (doi:10.1007/s10765-007-0223-x).

Assay: xn = mol fraction of the nth substance listed
Details: 101 kPa, Liquid; for speed of sound: Single path-length method

COC(C)(C)C [2-methoxy-2-methylpropane] + c1ccccc1
Details | mass density [kg/m3] | speed of sound [m/s]
288.15 K, x1 = 0.052 | 874.712 | 1328.4
288.15 K, x1 = 0.111 | 864.515 | 1309.5
288.15 K, x1 = 0.202 | 849.416 | 1281.7
288.15 K, x1 = 0.303 | 833.719 | 1252.5
288.15 K, x1 = 0.397 | 819.912 | 1226.5
288.15 K, x1 = 0.5 | 805.496 | 1199.1
288.15 K, x1 = 0.596 | 792.712 | 1174.8
288.15 K, x1 = 0.698 | 779.712 | 1149.4
288.15 K, x1 = 0.791 | 768.503 | 1128.2
288.15 K, x1 = 0.902 | 755.682 | 1103
288.15 K, x1 = 0.95 | 750.294 | 1092.4
288.15 K, x1 = 1 | 744.861 | 1083.4
290.65 K, x1 = 0.052 | 872.067 | 1316.5
290.65 K, x1 = 0.111 | 861.888 | 1297.5
290.65 K, x1 = 0.202 | 846.799 | 1269.6
290.65 K, x1 = 0.303 | 831.129 | 1240.5
290.65 K, x1 = 0.397 | 817.328 | 1214.4
290.65 K, x1 = 0.5 | 802.92 | 1187.2
290.65 K, x1 = 0.596 | 790.137 | 1163
290.65 K, x1 = 0.698 | 777.135 | 1137.7
290.65 K, x1 = 0.791 | 765.921 | 1116.4
290.65 K, x1 = 0.902 | 753.094 | 1091.2
290.65 K, x1 = 0.95 | 747.701 | 1080.6
290.65 K, x1 = 1 | 742.259 | 1071.6
293.15 K, x1 = 0.052 | 869.419 | 1304.8
293.15 K, x1 = 0.111 | 859.259 | 1285.9
293.15 K, x1 = 0.202 | 844.19 | 1258
293.15 K, x1 = 0.303 | 828.533 | 1228.9
293.15 K, x1 = 0.397 | 814.742 | 1202.9
293.15 K, x1 = 0.5 | 800.338 | 1175.6
293.15 K, x1 = 0.596 | 787.557 | 1151.4
293.15 K, x1 = 0.698 | 774.552 | 1126.2
293.15 K, x1 = 0.791 | 763.334 | 1104.8
293.15 K, x1 = 0.902 | 750.497 | 1079.6
293.15 K, x1 = 0.95 | 745.1 | 1069
293.15 K, x1 = 1 | 739.654 | 1060
295.65 K, x1 = 0.052 | 866.766 | 1293
295.65 K, x1 = 0.111 | 856.624 | 1274.2
295.65 K, x1 = 0.202 | 841.573 | 1246.3
295.65 K, x1 = 0.303 | 825.932 | 1217.3
295.65 K, x1 = 0.397 | 812.151 | 1191.3
295.65 K, x1 = 0.5 | 797.75 | 1164
295.65 K, x1 = 0.596 | 784.966 | 1139.8
295.65 K, x1 = 0.698 | 771.959 | 1114.6
295.65 K, x1 = 0.791 | 760.733 | 1093.1
295.65 K, x1 = 0.902 | 747.886 | 1067.9
295.65 K, x1 = 0.95 | 742.485 | 1057.2
295.65 K, x1 = 1 | 737.036 | 1048.5
298.15 K, x1 = 0.052 | 864.111 | 1281.3
298.15 K, x1 = 0.111 | 853.986 | 1262.6
298.15 K, x1 = 0.202 | 838.954 | 1234.8
298.15 K, x1 = 0.303 | 823.323 | 1205.8
298.15 K, x1 = 0.397 | 809.552 | 1179.8
298.15 K, x1 = 0.5 | 795.155 | 1152.5
298.15 K, x1 = 0.596 | 782.366 | 1128.2
298.15 K, x1 = 0.698 | 769.356 | 1103
298.15 K, x1 = 0.791 | 758.126 | 1081.5
298.15 K, x1 = 0.902 | 745.267 | 1056.2
298.15 K, x1 = 0.95 | 739.86 | 1045.5
298.15 K, x1 = 1 | 734.406 | 1036.9
300.65 K, x1 = 0.052 | 861.451 | 1269.7
300.65 K, x1 = 0.111 | 851.345 | 1251
300.65 K, x1 = 0.202 | 836.329 | 1223.2
300.65 K, x1 = 0.303 | 820.71 | 1194.3
300.65 K, x1 = 0.397 | 806.945 | 1168.3
300.65 K, x1 = 0.5 | 792.548 | 1141
300.65 K, x1 = 0.596 | 779.76 | 1116.7
300.65 K, x1 = 0.698 | 766.742 | 1091.5
300.65 K, x1 = 0.791 | 755.506 | 1070
300.65 K, x1 = 0.902 | 742.638 | 1044.7
300.65 K, x1 = 0.95 | 737.224 | 1033.8
300.65 K, x1 = 1 | 731.766 | 1025.4
303.15 K, x1 = 0.052 | 858.785 | 1258
303.15 K, x1 = 0.111 | 848.697 | 1239.5
303.15 K, x1 = 0.202 | 833.698 | 1211.7
303.15 K, x1 = 0.303 | 818.089 | 1182.8
303.15 K, x1 = 0.397 | 804.33 | 1156.9
303.15 K, x1 = 0.5 | 789.936 | 1129.6
303.15 K, x1 = 0.596 | 777.144 | 1105.2
303.15 K, x1 = 0.698 | 764.119 | 1080
303.15 K, x1 = 0.791 | 752.877 | 1058.5
303.15 K, x1 = 0.902 | 739.994 | 1033.2
303.15 K, x1 = 0.95 | 734.576 | 1022.3
303.15 K, x1 = 1 | 729.112 | 1013.9
305.65 K, x1 = 0.052 | – | 1246.5
305.65 K, x1 = 0.111 | – | 1228
305.65 K, x1 = 0.202 | – | 1200.3
305.65 K, x1 = 0.303 | – | 1171.4
305.65 K, x1 = 0.397 | – | 1145.5
305.65 K, x1 = 0.5 | – | 1118.2
305.65 K, x1 = 0.596 | – | 1093.8
305.65 K, x1 = 0.698 | – | 1068.6
